Source: patent US20180298405A1, “METHODS AND COMPOSITIONS TO INCREASE HUMAN SOMATIC CELL NUCLEAR TRANSFER (SCNT) EFFICIENCY BY REMOVING HISTONE H3-LYSINE TRIMETHYLATION, AND DERIVATION OF HUMAN NT-ESC” (CHILDREN'S MEDICAL CENTER CORPORATION, priority 2015, published 2018)

Test system: reprogramming resistant regions (RRRs) / ZGA genes
Assay: RNA-seq of late 8-cell human SCNT embryos with or without KDM4A mRNA injection (ZGA of RRRs, KDM4A-responsive genes)
Assay type: cell-based
Conditions: 8-cell embryos
Excerpt: A sliding window (size 20 kb, step size 10 kb) was used to assess the genome-wide expression level of 4-cell and 8-cell human embryos. For each window, the expression level was quantified with normalized RPM (reads per millions of uniquely mapped reads). […] These activated regions were classed into three groups based on their expression differences in human SCNT and IVF 8-cell embryos.
The SCNT embryos used for ZGA analysis were generated using oocytes donated by a single healthy person (#64) and dermal fibroblast cells from an AMD patient (DFB-8). SCNT and IVF embryos were cultured up to late 8-cell stage, when the compaction of blastomeres is initiated, then they were treated briefly with acid Tyrode solution to remove zona pellucida. To prepare for the 8-cell SCNT embryo, oocytes from a single oocyte donor, and skin fibroblast cells from a single somatic nuclear donor were used. All the procedures are the same as described in the “Human SCNT procedure and KMD4A mRNA injection” section. Only embryos that reached the late 8-cell stage synchronically 74 hours post activation were collected and used for this experiment.
For preparation of the control IVF embryos, several donated early 8-cell stage IVF embryos were thawed and cultured for 5-7 hours to allow them to reach late 8-cell stage before being processed. After removal of the zona pellucida, the denuded embryos were washed 3 times in PBS, loaded into RNAse and DNAse free PCR tubes, spin downed, and snap frozen in liquid nitrogen. Then, they were kept at −80° C. until use. As controls, dermal fibroblast cells of somatic nuclear donors were also prepared. Those fibroblast cells were cultured in a 25 cm^2 flask in DMEM 10% FBS, and approximately 10,000 cells/donor were collected, snap frozen, and stored at −80° C. until use.
Five 8-cell embryos for each group were directly lysed and used for cDNA synthesis using SMART-Seq v4 Ultra Low Input RNA Kit (Clontech). For MEF donor, 10 ng total RNA was used for cDNA synthesis using SMART-Seq v4 Ultra Low Input RNA Kit. After amplification, the cDNA samples were fragmented using Covaris sonicator M220 to an average size of 150 bp (Covaris). Sequencing libraries were made with the fragmented DNA using NEBNext Ultra DNA Library Prep Kit for Illumina according to manufacturer's instruction (New England Biolabs) with different barcodes. For each RNA-seq analysis of hESCs, 1 μg total RNA was used for mRNA purification. Barcoded RNA-seq libraries were generated using NEBNext Ultra Directional RNA Library Prep Kit for Illumina (New England Biolabs). Single end 50 bp sequencing was performed on a HiSeq 2500 sequencer (Illumina). Sequencing reads were mapped to the human genome (hg19) with Tophat2. All programs were performed with default settings (unless otherwise specified). At least 22 million uniquely mapped reads were obtained for each sequencing library, and subsequently assembled into transcripts guided by the reference annotation (Refseq gene models) with Cufflinks v2.0.2. Expression level of each gene was quantified with normalized FPKM (fragments per kilobase of exon per million mapped fragments). Statistical analyses were performed with R (available at: “www.r-project.org/”). Independent 2 group Wilcoxon rank sum tests were used to compare distributions using the wilcox.test function in R. Pearson's r coefficient was calculated using the cor function with default parameters. The hierarchical clustering analysis of the global gene expression pattern in different samples was carried out using heatmap.2 function (gplots package) in R.

KDM4A mRNA: in vitro transcribed mRNA of full length human KDM4A/JHDM3A cDNA, an H3K9me3 demethylase (SEQ ID NO: 1)
NDUFAF2 Fold Change (log2) [KDM4A SCNT/Control SCNT]: 1.16 log2
NMNAT1 Fold Change (log2) [KDM4A SCNT/Control SCNT]: 1.28 log2
NOC4L Fold Change (log2) [KDM4A SCNT/Control SCNT]: 1.15 log2
NOP58 Fold Change (log2) [KDM4A SCNT/Control SCNT]: 1.4 log2
NUDT9 Fold Change (log2) [KDM4A SCNT/Control SCNT]: 1.82 log2
PAGE5 Fold Change (log2) [KDM4A SCNT/Control SCNT]: 1.24 log2
PDCD11 Fold Change (log2) [KDM4A SCNT/Control SCNT]: 1.11 log2
PDE4DIP Fold Change (log2) [KDM4A SCNT/Control SCNT]: 1.79 log2
PHOSPHO1 Fold Change (log2) [KDM4A SCNT/Control SCNT]: 1.46 log2
PIK3R4 Fold Change (log2) [KDM4A SCNT/Control SCNT]: 1.58 log2
PLBD1 Fold Change (log2) [KDM4A SCNT/Control SCNT]: 1.69 log2
PLD2 Fold Change (log2) [KDM4A SCNT/Control SCNT]: 1.2 log2
PLVAP Fold Change (log2) [KDM4A SCNT/Control SCNT]: 1.63 log2
POLR3K Fold Change (log2) [KDM4A SCNT/Control SCNT]: 1.34 log2
POTEM Fold Change (log2) [KDM4A SCNT/Control SCNT]: 1.56 log2
PPM1N Fold Change (log2) [KDM4A SCNT/Control SCNT]: 1.68 log2
PPP2CB Fold Change (log2) [KDM4A SCNT/Control SCNT]: 2.17 log2
PRAMEF3 Fold Change (log2) [KDM4A SCNT/Control SCNT]: 2.4 log2
PRAMEF4 Fold Change (log2) [KDM4A SCNT/Control SCNT]: 1.02 log2
PRAMEF6 Fold Change (log2) [KDM4A SCNT/Control SCNT]: 1.08 log2
PRAMEF10 Fold Change (log2) [KDM4A SCNT/Control SCNT]: 1.05 log2
PRAMEF11 Fold Change (log2) [KDM4A SCNT/Control SCNT]: 1.31 log2
PRAMEF17 Fold Change (log2) [KDM4A SCNT/Control SCNT]: 1.44 log2
PRPF39 Fold Change (log2) [KDM4A SCNT/Control SCNT]: 1.4 log2
PTPN22 Fold Change (log2) [KDM4A SCNT/Control SCNT]: 2.57 log2
RAB9A Fold Change (log2) [KDM4A SCNT/Control SCNT]: 1.39 log2
RASA2 Fold Change (log2) [KDM4A SCNT/Control SCNT]: 1.36 log2
RFK Fold Change (log2) [KDM4A SCNT/Control SCNT]: 1.29 log2
RNU11 Fold Change (log2) [KDM4A SCNT/Control SCNT]: 5.27 log2
RP2 Fold Change (log2) [KDM4A SCNT/Control SCNT]: 1.82 log2
RPF2 Fold Change (log2) [KDM4A SCNT/Control SCNT]: 1.46 log2
RPS6KB2 Fold Change (log2) [KDM4A SCNT/Control SCNT]: 1.81 log2
SAMD8 Fold Change (log2) [KDM4A SCNT/Control SCNT]: 1.14 log2
SCO1 Fold Change (log2) [KDM4A SCNT/Control SCNT]: 1.15 log2
SEPX1 Fold Change (log2) [KDM4A SCNT/Control SCNT]: 1.36 log2
SERTAD1 Fold Change (log2) [KDM4A SCNT/Control SCNT]: 1.12 log2
SFTPD Fold Change (log2) [KDM4A SCNT/Control SCNT]: 2.45 log2
SGCG Fold Change (log2) [KDM4A SCNT/Control SCNT]: 2.73 log2
SGPP1 Fold Change (log2) [KDM4A SCNT/Control SCNT]: 1.41 log2
SHFM1 Fold Change (log2) [KDM4A SCNT/Control SCNT]: 1.73 log2
SIAH1 Fold Change (log2) [KDM4A SCNT/Control SCNT]: 1.7 log2
SNAPC1 Fold Change (log2) [KDM4A SCNT/Control SCNT]: 1.71 log2
SNAR-C3 Fold Change (log2) [KDM4A SCNT/Control SCNT]: 1.85 log2
SNAR-E Fold Change (log2) [KDM4A SCNT/Control SCNT]: 1.72 log2
SNHG9 Fold Change (log2) [KDM4A SCNT/Control SCNT]: 1.3 log2
SNHG12 Fold Change (log2) [KDM4A SCNT/Control SCNT]: 1.42 log2
SPINK7 Fold Change (log2) [KDM4A SCNT/Control SCNT]: 5.38 log2
SRA1 Fold Change (log2) [KDM4A SCNT/Control SCNT]: 1.23 log2
SSX3 Fold Change (log2) [KDM4A SCNT/Control SCNT]: 1.1 log2
STAG3L2 Fold Change (log2) [KDM4A SCNT/Control SCNT]: 1.35 log2
STAG3L4 Fold Change (log2) [KDM4A SCNT/Control SCNT]: 1.17 log2
STAP2 Fold Change (log2) [KDM4A SCNT/Control SCNT]: 1.25 log2
SUZ12P Fold Change (log2) [KDM4A SCNT/Control SCNT]: 1.68 log2
TAC1 Fold Change (log2) [KDM4A SCNT/Control SCNT]: 1.38 log2
TCEANC2 Fold Change (log2) [KDM4A SCNT/Control SCNT]: 1.13 log2
TCN2 Fold Change (log2) [KDM4A SCNT/Control SCNT]: 1.4 log2
TEN1 Fold Change (log2) [KDM4A SCNT/Control SCNT]: 1.66 log2
THOC5 Fold Change (log2) [KDM4A SCNT/Control SCNT]: 1.46 log2
TIMM10 Fold Change (log2) [KDM4A SCNT/Control SCNT]: 1.41 log2
TMEM41B Fold Change (log2) [KDM4A SCNT/Control SCNT]: 1.14 log2
TMEM92 Fold Change (log2) [KDM4A SCNT/Control SCNT]: 1.42 log2
TMEM159 Fold Change (log2) [KDM4A SCNT/Control SCNT]: 1.17 log2
TRIM39-RPP21 Fold Change (log2) [KDM4A SCNT/Control SCNT]: 1.09 log2
TRIML2 Fold Change (log2) [KDM4A SCNT/Control SCNT]: 1.55 log2
TSEN34 Fold Change (log2) [KDM4A SCNT/Control SCNT]: 1.28 log2
TTC27 Fold Change (log2) [KDM4A SCNT/Control SCNT]: 1.72 log2
TTC28-AS1 Fold Change (log2) [KDM4A SCNT/Control SCNT]: 1.74 log2
UBTFL1 Fold Change (log2) [KDM4A SCNT/Control SCNT]: 1.8 log2
UTP3 Fold Change (log2) [KDM4A SCNT/Control SCNT]: 1.08 log2
UTP23 Fold Change (log2) [KDM4A SCNT/Control SCNT]: 1.35 log2
UTS2 Fold Change (log2) [KDM4A SCNT/Control SCNT]: 1.28 log2
VAMP1 Fold Change (log2) [KDM4A SCNT/Control SCNT]: 2.23 log2
VCX2 Fold Change (log2) [KDM4A SCNT/Control SCNT]: 1.77 log2
VCX Fold Change (log2) [KDM4A SCNT/Control SCNT]: 1.72 log2
VPS54 Fold Change (log2) [KDM4A SCNT/Control SCNT]: 2.28 log2
WDR77 Fold Change (log2) [KDM4A SCNT/Control SCNT]: 1.18 log2
XAGE5 Fold Change (log2) [KDM4A SCNT/Control SCNT]: 1.07 log2
ZCCHC10 Fold Change (log2) [KDM4A SCNT/Control SCNT]: 1.22 log2
ZFYVE19 Fold Change (log2) [KDM4A SCNT/Control SCNT]: 1.49 log2
ZNF92 Fold Change (log2) [KDM4A SCNT/Control SCNT]: 1.03 log2
ZNF100 Fold Change (log2) [KDM4A SCNT/Control SCNT]: 2.53 log2
ZNF174 Fold Change (log2) [KDM4A SCNT/Control SCNT]: 1.24 log2
ZNF208 Fold Change (log2) [KDM4A SCNT/Control SCNT]: 1.57 log2
ZNF254 Fold Change (log2) [KDM4A SCNT/Control SCNT]: 1.37 log2
ZNF273 Fold Change (log2) [KDM4A SCNT/Control SCNT]: 1.11 log2
ZNF280A Fold Change (log2) [KDM4A SCNT/Control SCNT]: 1.34 log2
ZNF326 Fold Change (log2) [KDM4A SCNT/Control SCNT]: 1.37 log2
ZNF345 Fold Change (log2) [KDM4A SCNT/Control SCNT]: 1.46 log2
ZNF486 Fold Change (log2) [KDM4A SCNT/Control SCNT]: 1.74 log2
ZNF487P Fold Change (log2) [KDM4A SCNT/Control SCNT]: 1.2 log2
ZNF625-ZNF20 Fold Change (log2) [KDM4A SCNT/Control SCNT]: 2.32 log2
ZNF625 Fold Change (log2) [KDM4A SCNT/Control SCNT]: 1.87 log2
ZNF669 Fold Change (log2) [KDM4A SCNT/Control SCNT]: 1.08 log2
ZNF675 Fold Change (log2) [KDM4A SCNT/Control SCNT]: 1.87 log2
ZNF676 Fold Change (log2) [KDM4A SCNT/Control SCNT]: 1.29 log2
ZNF679 Fold Change (log2) [KDM4A SCNT/Control SCNT]: 2.13 log2
ZNF680 Fold Change (log2) [KDM4A SCNT/Control SCNT]: 1.18 log2
ZNF684 Fold Change (log2) [KDM4A SCNT/Control SCNT]: 1.53 log2
ZNF700 Fold Change (log2) [KDM4A SCNT/Control SCNT]: 1.49 log2
ZNF724P Fold Change (log2) [KDM4A SCNT/Control SCNT]: 1.04 log2
ZNF729 Fold Change (log2) [KDM4A SCNT/Control SCNT]: 1.75 log2
ZNF735 Fold Change (log2) [KDM4A SCNT/Control SCNT]: 1.24 log2
ZNF789 Fold Change (log2) [KDM4A SCNT/Control SCNT]: 1.28 log2
ZNF791 Fold Change (log2) [KDM4A SCNT/Control SCNT]: 1.38 log2
